Values quoted from earlier work, collected in patent US20240197637A1, “POLYMERIC MICROPARTICLES FOR THE LOCAL TREATMENT OF CHRONIC INFLAMMATORY DISEASES” (FONDAZIONE ISTITUTO ITALIANO DI TECNOLOGIA, priority 2021, published 2024).

Tested on: DMM murine model of injury-induced OA

Cc1ccc2c(c1)C1(CCN(CCc3nc(-c4ccccc4)oc3C)CC1)OC(=O)N2 [RS 504393]
pain perception (orally and daily administered): decreased
severity of structural damage (orally and daily administered, early OA stage): decreased the severity of structural damage
cartilage and bone damage (prolonged and delayed exposure): did not translate in a significant reduction
pain (prolonged and delayed exposure): alleviating pain
